Values of other authors as cited in patent US8003635B2, “Superoxide dismutase mimics for the treatment of ocular disorders and diseases” (Novartis AG, priority 2001, dated 2011).

Columns and labels:
[1] = test system: light-induced retinal damage; conditions: albino rats
[2] = test system: onset of diabetes; conditions: diabetogenic T-cell clone
[3] = test system: diabetic rats

**Q.** Which light-induced retinal damage [1] does the source give for `CC1(C)CC(O)CC(C)(C)N1[O]` [4-hydroxy-2,2,6,6-tetramethylpiperidine-1-oxyl] here?
**A.** inhibited light-induced retinal damage

**Q.** Which onset of diabetes [2] does the source give for `CCN1C=CC=C/C1=C1/C2=NC(=C(c3cccc[n+]3CC)C3=NC(=C(c4cccc[n+]4CC)c4ccc([n-]4)C(c4cccc[n+]4CC)=C4C=CC1=N4)C=C3)C=C2.[Cl-].[Cl-].[Cl-].[Cl-].[Cl-].[Mn+3]` [AEOL10113] here?
**A.** delay the onset of diabetes

**Q.** Which “vascular and neural dysfunction” value [3] does the source give for `[Cl-].[Cl-].[Mn+2].c1cc2nc(c1)CN[C@@H]1CCCC[C@H]1NCCN[C@@H]1CCCC[C@H]1NC2` [M40403] here?
**A.** prevented vascular and neural dysfunction
